Consider 6 molecules from PMC3553014, “Albumin Stimulates the Activity of the Human UDP-Glucuronosyltransferases 1A7, 1A8, 1A10, 2A1 and 2B15, but the Effects Are Enzyme and Substrate Dependent” (PLoS ONE, 2013).

Like-named read-outs stand apart in the source and are kept apart here. A value given as a limit tells only on which side of the number the result lay.

As a reminder, the fraction unbound is the share of the substance not bound to proteins or other matrix. A high value points to much free substance.

For series [1], the target named is T1, BSA (Bos taurus, UniProt P02769). Briefly: in vitro. Conditions: bovine.
T1 sequence (P02769 25-607): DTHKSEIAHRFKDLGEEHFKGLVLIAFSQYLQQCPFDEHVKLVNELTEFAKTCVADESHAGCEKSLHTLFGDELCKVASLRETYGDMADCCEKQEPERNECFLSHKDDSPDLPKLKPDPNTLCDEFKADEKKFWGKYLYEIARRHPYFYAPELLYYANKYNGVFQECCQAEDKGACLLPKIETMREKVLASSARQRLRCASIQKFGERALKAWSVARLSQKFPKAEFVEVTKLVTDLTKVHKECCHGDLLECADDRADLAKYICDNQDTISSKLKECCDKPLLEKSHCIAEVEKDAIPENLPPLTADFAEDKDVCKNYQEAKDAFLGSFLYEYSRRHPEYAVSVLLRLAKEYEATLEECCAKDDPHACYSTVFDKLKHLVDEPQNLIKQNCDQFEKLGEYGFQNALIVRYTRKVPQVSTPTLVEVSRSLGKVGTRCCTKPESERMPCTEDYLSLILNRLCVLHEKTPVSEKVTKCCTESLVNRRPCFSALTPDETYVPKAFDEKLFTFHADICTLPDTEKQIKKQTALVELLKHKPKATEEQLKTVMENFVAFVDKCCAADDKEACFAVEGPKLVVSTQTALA
A short description of series [2]: Nonspecific binding to the RED device. The note with it: rapid equilibrium dialysis. (In general: In equilibrium dialysis only unbound substance equilibrates across the membrane.)
The target of a further series is T2, UGT1A6 (Homo sapiens, UniProt P19224).
T2 sequence (P19224 27-532): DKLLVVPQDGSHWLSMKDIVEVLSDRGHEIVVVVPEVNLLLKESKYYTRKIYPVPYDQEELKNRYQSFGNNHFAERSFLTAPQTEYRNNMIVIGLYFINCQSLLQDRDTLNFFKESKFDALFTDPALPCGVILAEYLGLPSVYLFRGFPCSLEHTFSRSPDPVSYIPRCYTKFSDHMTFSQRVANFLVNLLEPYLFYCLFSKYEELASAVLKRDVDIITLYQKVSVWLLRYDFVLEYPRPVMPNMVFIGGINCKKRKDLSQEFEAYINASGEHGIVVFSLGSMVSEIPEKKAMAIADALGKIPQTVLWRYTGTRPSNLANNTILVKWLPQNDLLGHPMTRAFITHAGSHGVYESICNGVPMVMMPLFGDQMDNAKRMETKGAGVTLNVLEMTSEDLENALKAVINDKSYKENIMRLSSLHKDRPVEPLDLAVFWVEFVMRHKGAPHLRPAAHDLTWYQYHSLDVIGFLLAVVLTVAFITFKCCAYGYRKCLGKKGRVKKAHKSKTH
The experiment in a line: UGT1A6-catalyzed glucuronidation, enzyme kinetics. Conditions: No BSA; expression level-normalized.

Series [3] is described as follows: Drug binding to control insect cell membranes by RED. The note with it: 0.2 mg/mL total protein in the membrane.
In the next series the target is T3, UGT2B4 (Homo sapiens, UniProt P06133).
T3 sequence (P06133 24-528): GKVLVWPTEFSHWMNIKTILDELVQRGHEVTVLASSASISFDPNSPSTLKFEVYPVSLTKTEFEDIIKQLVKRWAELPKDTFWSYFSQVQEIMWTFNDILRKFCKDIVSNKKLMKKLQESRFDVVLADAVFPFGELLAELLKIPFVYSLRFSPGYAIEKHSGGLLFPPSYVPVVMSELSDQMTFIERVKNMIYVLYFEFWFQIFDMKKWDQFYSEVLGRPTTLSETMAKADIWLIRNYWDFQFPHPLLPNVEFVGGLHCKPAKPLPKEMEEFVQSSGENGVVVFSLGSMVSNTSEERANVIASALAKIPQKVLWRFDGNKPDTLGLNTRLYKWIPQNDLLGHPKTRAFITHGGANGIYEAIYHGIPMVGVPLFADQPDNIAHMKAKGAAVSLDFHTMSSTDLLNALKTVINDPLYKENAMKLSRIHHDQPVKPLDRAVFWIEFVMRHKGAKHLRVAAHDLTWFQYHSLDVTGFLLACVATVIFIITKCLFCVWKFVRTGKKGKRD
Briefly: UGT2B4-catalyzed glucuronidation, enzyme kinetics.

In the next series the target is T4, UGT2B15 (Homo sapiens, UniProt P54855).
T4 sequence (P54855 24-530): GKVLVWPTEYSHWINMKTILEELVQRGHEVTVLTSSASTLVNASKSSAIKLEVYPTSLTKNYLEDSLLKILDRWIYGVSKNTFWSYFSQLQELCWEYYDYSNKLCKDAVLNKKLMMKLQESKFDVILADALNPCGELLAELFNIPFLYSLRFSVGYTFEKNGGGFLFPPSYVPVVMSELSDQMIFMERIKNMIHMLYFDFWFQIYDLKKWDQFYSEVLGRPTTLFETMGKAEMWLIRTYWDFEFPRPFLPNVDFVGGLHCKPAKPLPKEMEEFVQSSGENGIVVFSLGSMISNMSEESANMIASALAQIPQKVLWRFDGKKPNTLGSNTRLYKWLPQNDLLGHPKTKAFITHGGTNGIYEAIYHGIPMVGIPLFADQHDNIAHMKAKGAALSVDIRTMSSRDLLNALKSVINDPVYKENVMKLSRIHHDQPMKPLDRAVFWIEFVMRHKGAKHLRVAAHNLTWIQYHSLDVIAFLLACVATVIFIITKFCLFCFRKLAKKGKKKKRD

The next series concerns the target T5, UGT2B7 (Homo sapiens, UniProt P16662).
T5 sequence (P16662 24-529): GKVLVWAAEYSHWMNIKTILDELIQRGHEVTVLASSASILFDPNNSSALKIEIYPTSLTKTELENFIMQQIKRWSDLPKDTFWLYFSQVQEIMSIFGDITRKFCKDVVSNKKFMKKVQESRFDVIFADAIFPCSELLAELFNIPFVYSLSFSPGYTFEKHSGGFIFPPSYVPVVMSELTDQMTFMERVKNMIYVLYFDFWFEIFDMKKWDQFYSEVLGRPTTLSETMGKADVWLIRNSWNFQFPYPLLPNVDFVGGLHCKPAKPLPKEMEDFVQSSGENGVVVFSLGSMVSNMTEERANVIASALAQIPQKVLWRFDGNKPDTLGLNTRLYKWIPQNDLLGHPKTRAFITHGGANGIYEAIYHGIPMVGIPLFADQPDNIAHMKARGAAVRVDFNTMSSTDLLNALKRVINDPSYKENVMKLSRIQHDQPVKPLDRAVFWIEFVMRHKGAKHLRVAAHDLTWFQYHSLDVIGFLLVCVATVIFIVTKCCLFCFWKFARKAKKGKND
Conditions: No BSA; expression level-normalized; estradiols: 17-glucuronide formation.

Series [4] has as its target T6, UGT1A1 (Homo sapiens, UniProt P22309).
T6 sequence (P22309 26-533): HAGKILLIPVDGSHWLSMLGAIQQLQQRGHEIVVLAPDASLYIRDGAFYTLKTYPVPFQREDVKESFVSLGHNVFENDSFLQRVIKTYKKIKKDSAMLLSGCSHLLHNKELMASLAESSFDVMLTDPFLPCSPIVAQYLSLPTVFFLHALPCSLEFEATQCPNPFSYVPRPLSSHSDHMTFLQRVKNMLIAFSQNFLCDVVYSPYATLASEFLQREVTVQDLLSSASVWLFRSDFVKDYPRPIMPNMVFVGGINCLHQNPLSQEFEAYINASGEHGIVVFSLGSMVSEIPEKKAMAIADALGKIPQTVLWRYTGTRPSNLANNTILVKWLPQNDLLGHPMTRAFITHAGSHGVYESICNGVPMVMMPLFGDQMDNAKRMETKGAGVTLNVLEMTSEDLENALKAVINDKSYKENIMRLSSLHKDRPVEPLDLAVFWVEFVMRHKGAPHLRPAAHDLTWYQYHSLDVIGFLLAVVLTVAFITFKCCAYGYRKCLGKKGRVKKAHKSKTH
The experiment in a line: UGT1A1-catalyzed glucuronidation, enzyme kinetics. The note with it: No BSA; expression level-normalized; estradiols: 3-glucuronide formation.
Procedure: (§1) Recombinant human UGTs 1A1, 1A6, 1A7, 1A8, 1A10, 2A1, 2B4, 2B7 and 2B17 were expressed as His-tagged proteins in baculovirus-infected insect cells as described previously [14]. […] Protein concentrations were determined by the BCA method (Pierce Biotechnology, Rockford, IL, USA).
(§2) The protein concentrations and incubation times for the enzyme kinetic assays were selected based on preliminary assays in order to ensure that the product formation was within the linear range with respect to both protein concentration and time, and that the substrate consumption during the reaction was less than 10%. The initial velocity measurements were performed in either duplicates or triplicates and they are presented as the average values and S.E.
(§3) The glucuronidation rates by recombinant enzymes are reported as “expression normalized” values. The relative expression level of each recombinant UGT that was produced in our laboratory was determined using immunoblotting, as previously described [14], [19]. The dot blot assays were performed in triplicate and the average value was used for normalization. […] The “expression normalized” glucuronidation rates were calculated by dividing the measured glucuronidation rates with relative expression level of the each given recombinant UGT.
(§4) In assays containing BSA, the total concentrations of substrate were corrected according to the measured drug binding to BSA, under the specific conditions of each glucuronidation assay. The statistical significance of the difference in enzyme kinetics parameters upon BSA addition was tested with extra sum-of-squares F-test (included in the GraphPad software, [20]. The initial glucuronidation rates were fitted to the following equations:

The target of a further series is T7, UGT1A7 (Homo sapiens, UniProt Q9HAW7).
T7 construct: His-tag; made in house; host or cells: baculovirus-infected insect cells (Sf9)
T7 sequence (Q9HAW7 26-530): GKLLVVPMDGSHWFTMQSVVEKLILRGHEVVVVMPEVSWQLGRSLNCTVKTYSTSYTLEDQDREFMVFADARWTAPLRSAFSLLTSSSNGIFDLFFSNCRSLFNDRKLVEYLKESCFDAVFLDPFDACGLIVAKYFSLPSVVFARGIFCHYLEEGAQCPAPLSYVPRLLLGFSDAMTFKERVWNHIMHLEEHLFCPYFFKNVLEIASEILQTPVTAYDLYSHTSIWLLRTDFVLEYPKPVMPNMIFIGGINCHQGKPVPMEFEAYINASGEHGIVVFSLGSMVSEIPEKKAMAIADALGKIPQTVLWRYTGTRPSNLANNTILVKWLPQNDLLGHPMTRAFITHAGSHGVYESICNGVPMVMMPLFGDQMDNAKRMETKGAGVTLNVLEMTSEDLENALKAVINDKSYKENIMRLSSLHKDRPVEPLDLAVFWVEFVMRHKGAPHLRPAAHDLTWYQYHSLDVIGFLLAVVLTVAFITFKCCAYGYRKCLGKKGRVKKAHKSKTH
Briefly: UGT1A7-catalyzed glucuronidation, enzyme kinetics. The note with it: for V max ± S.E.: No BSA, expression level-normalized. The series is classed as in vitro ADME.

In a further series the target is T8, UGT1A10 (Homo sapiens, UniProt Q9HAW8).
T8 construct: His-tag; made in house; host or cells: baculovirus-infected insect cells (Sf9)
T8 sequence (Q9HAW8 26-530): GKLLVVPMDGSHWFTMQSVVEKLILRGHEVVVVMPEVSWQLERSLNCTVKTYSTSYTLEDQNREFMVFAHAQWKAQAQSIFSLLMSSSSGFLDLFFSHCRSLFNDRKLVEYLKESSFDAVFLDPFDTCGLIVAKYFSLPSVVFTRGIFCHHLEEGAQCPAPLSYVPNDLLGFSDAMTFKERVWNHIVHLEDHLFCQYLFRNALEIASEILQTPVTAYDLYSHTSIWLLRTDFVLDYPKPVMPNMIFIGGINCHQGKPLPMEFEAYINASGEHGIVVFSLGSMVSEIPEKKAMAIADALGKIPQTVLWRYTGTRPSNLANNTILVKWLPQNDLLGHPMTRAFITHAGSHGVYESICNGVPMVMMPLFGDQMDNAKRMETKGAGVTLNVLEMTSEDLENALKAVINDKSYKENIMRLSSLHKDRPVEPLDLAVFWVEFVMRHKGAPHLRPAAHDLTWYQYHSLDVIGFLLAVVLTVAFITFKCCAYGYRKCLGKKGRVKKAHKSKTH
Briefly: UGT1A10-catalyzed glucuronidation, enzyme kinetics. Conditions: No BSA; expression level-normalized; estradiols: 3-glucuronide formation. The series is classed as in vitro ADME.

The target in another series is T9, UGT2A1 (Homo sapiens, UniProt P0DTE4).
T9 sequence (P0DTE4 21-527): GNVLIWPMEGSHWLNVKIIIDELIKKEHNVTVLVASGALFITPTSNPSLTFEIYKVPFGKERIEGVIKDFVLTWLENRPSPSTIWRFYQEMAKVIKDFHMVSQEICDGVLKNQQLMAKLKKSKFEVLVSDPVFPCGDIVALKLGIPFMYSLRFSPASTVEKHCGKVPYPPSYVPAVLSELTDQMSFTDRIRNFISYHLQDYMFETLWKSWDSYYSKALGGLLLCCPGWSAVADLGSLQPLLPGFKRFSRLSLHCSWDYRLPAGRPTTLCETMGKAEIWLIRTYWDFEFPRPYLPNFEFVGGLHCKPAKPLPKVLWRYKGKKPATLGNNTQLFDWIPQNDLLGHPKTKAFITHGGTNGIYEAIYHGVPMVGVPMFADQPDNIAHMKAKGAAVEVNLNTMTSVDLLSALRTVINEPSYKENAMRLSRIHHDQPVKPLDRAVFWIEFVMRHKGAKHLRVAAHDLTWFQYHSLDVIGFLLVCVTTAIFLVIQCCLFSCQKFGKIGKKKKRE
Briefly: UGT2A1-catalyzed glucuronidation, enzyme kinetics. The note with it: 0.1% BSA vs no BSA.

The test system of series [5] is UGT1A9 expressed in Sf9 insect cells. Conditions: darexaban glucuronidation; cited from earlier work.
Series [6] concerns the target T1, BSA. The arrangement: purchased Sigma-Aldrich (St. Louis, MO, USA). Conditions: 1% BSA; cited from earlier work.
The target in series [7] is T6, UGT1A1. The note with it: read-out: No BSA: K m or S 50 ± S.E. (95% CI).
Procedure: as §1, §2
The HPLC system consisted of an Agilent 1100 series degasser, binary pump, 100-vial autosampler, thermostated column compartment, multiple wavelengths UV detector, and fluorescence detector (Agilent Technologies, Palo Alto, CA, USA). […] The resulting chromatograms were analyzed with Agilent ChemStation software (rev. B.01.01) on Windows XP Professional. […] The resulting chromatograms were analyzed with Empower 2 software (Build 2154, Waters, Milford, MA, USA) on Windows XP Professional operating system. The limits of detection and quantification were estimated based on signal-to-noise ratios of 3 and 10, respectively. […]

Procedure for UGT1A10: as §1, §2
The glucuronidation rates by recombinant enzymes are reported as “expression normalized” values. The relative expression level of each recombinant UGT that was produced in our laboratory was determined using immunoblotting, as previously described [14], [19]. […] The “expression normalized” glucuronidation rates were calculated by dividing the measured glucuronidation rates with relative expression level of the each given recombinant UGT.
In assays containing BSA, the total concentrations of substrate were corrected according to the measured drug binding to BSA, under the specific conditions of each glucuronidation assay.
Procedure for UGT1A6: as §1, §2, §3, §4
Procedure for UGT1A7: (§5) Protein concentrations were determined by the BCA method (Pierce Biotechnology, Rockford, IL, USA).
as §2
The glucuronidation rates by recombinant enzymes are reported as “expression normalized” values. […] The “expression normalized” glucuronidation rates were calculated by dividing the measured glucuronidation rates with relative expression level of the each given recombinant UGT.
The enzyme kinetic parameters were obtained by fitting kinetic models to the experimental data using GraphPad Prism version 5.04 for Windows (GraphPad Software Inc., San Diego, CA, USA).
Procedure for UGT2A1: as §1, §2, §3, §4
Procedure for UGT2B15: as §1, §2, §3, §4
Procedure for UGT2B4: as §5, §2
(§6) The glucuronidation rates by recombinant enzymes are reported as “expression normalized” values. […] The dot blot assays were performed in triplicate and the average value was used for normalization. […] The “expression normalized” glucuronidation rates were calculated by dividing the measured glucuronidation rates with relative expression level of the each given recombinant UGT.
as §4
Procedure for UGT2B7: as §5, §2, §6, §4

On BSA [1], `Oc1ccc2cc[nH]c2c1` [6-Hydroxyindole, 6-hydroxyindole] yielded a fraction unbound at 6 h of 0.84 to 0.97. The “nonspecific binding to the RED device” value in [2] was no more than 10%. For the same molecule, the “V max ± S.E.” value on UGT1A6 is given as 7.0±0.8(5.3–8.7) nmol•min^–1•mg^–1.
For the molecule `C[C@]12CC[C@@H]3c4ccc(O)cc4CC[C@H]3[C@@H]1CC[C@H]2O` [17α-Estradiol, 17α-estradiol], in series [3], the “binding to control insect cell membrane” value was “negligible”. For the same molecule, the free fraction (fraction unbound) at 8 h at BSA [1] came out at 0.49 ± 0.01. Besides, the “K m or S 50 ± S.E.” value is 1.60±0.23 ^***(1.12–2.08) µM at UGT2B4 and 5.58±0.56 ^***(4.24–6.74) µM at UGT2B15 (0.1% BSA, substrate concentration corrected for binding to BSA, 17α-estradiol: 3-glucuronide formation). Moreover, the “V max ± S.E.” value is 0.053±0.002(0.048–0.058) nmol•min^–1•mg^–1 at UGT2B4 and 0.069±0.003(0.062–0.076) nmol•min^–1•mg^–1 at UGT2B15.
As for `Cc1cc(=O)oc2cc(O)ccc12` [4-MU, 4-Methylumbelliferone], the “V max ± S.E.” value at UGT2B7 is 0.28±0.03(0.22–0.34) nmol•min^–1•mg^–1; on UGT1A1 [4], 0.11±0.004(0.11–0.12) nmol•min^–1•mg^–1; on UGT2B15 (No BSA, measured rates, not expression normalized, 17α-estradiol: 3-glucuronide formation), 0.83±0.01(0.82–0.85) nmol•min^–1•mg^–1; at UGT1A7 it was 0.25±0.01(0.22–0.28) nmol•min^–1•mg^–1; at UGT1A6, 5.2±0.3(4.5–6.0) nmol•min^–1•mg^–1; on UGT1A10, 8.0±0.3(7.3–8.7) nmol•min^–1•mg^–1.
Regarding bovine serum albumin [BSA], in the series with UGT2A1, the “decrease of K m values on inclusion of 0.1% BSA” value is given as “up to 20 fold”. The “V max increase on inclusion of 0.1% BSA” value with UGT1A7 (0.1% BSA vs no BSA) is “up to 7 fold”. Further, the “effect of 2% BSA instead of 0.1% BSA” value in series [5] was “very little effect”.
Regarding `CCN(CC)C(=O)/C(C#N)=C/c1cc(O)c(O)c([N+](=O)[O-])c1` [Entacapone], the “f u (unbound fraction)” value on BSA [6] is listed as less than 0.1. The “V max ± S.E.” value on UGT1A7 is 0.15±0.01(0.14–0.16) nmol•min^–1•mg^–1; on UGT1A10, 0.91±0.01(0.89–0.94) nmol•min^–1•mg^–1.
On to 17β-estradiol, for which the Km at UGT1A1 [7] is 7.84 µM.
